One data set concerns the target T1, CYP336A1 (Apis mellifera, UniProt A0A8U0WT43, D298G).
T1 construct: gene LOC724211; codon-optimised; microsomes of baculovirus-infected High Five insect cells, coexpressed with A. mellifera NADPH-cytochrome P450 reductase
The data set is described as follows: fluorogenic model substrate assay, recombinant microsomes. It is filed as biochemical. The conditions noted are these: NADPH; activity present only in the mutant.

Substrate in data set [1]: CN1CCC[C@H]1c1cccnc1
Kind of data set: nicotine depletion by UPLC-MS/MS, recombinant microsomes. It is filed as biochemical, Apis mellifera. The conditions noted are these: NADPH regeneration system, pH 7.6, 30°C, 30 min, 0.78-100 μM nicotine.

T1 sequence (A0A8U0WT43 entry or part of it D298G): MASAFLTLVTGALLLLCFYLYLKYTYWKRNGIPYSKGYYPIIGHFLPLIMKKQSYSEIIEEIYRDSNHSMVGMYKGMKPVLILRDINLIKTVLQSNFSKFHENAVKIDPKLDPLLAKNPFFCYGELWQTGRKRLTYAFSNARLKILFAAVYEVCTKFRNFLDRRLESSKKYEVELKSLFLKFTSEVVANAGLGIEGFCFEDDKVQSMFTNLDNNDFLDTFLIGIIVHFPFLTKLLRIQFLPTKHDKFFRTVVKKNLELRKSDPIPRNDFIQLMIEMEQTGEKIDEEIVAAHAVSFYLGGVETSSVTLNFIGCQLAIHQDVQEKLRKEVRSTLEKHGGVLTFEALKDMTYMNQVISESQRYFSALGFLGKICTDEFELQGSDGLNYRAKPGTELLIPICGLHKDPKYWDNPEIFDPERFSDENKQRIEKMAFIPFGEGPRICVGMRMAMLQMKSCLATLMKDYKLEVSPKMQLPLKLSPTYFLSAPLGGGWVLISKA

Take `O=c1cc(C(F)(F)F)c2ccc(OCc3ccccc3)cc2o1` [BFC, 7-benzyloxy-4-(trifluoromethyl)coumarin]: the “fluorogenic model substrate assay, recombinant microsomes” value on CYP336A1 is “the D298G substitution leads to significant activity toward BFC”.

B1: CYP336A1 (Apis mellifera) (protein)
chain: MASAFLTLVTGALLLLCFYLYLKYTYWKRNGIPYSKGYYPIIGHFLPLIMKKQSYSEIIEEIYRDSNHSMVGMYKGMKPVLILRDINLIKTVLQSNFSKFHENAVKIDPKLDPLLAKNPFFCYGELWQTGRKRLTYAFSNARLKILFAAVYEVCTKFRNFLDRRLESSKKYEVELKSLFLKFTSEVVANAGLGIEGFCFEDDKVQSMFTNLDNNDFLDTFLIGIIVHFPFLTKLLRIQFLPTKHDKFFRTVVKKNLELRKSDPIPRNDFIQLMIEMEQTGEKIDEEIVAAHAVSFYLDGVETSSVTLNFIGCQLAIHQDVQEKLRKEVRSTLEKHGGVLTFEALKDMTYMNQVISESQRYFSALGFLGKICTDEFELQGSDGLNYRAKPGTELLIPICGLHKDPKYWDNPEIFDPERFSDENKQRIEKMAFIPFGEGPRICVGMRMAMLQMKSCLATLMKDYKLEVSPKMQLPLKLSPTYFLSAPLGGGWVLISKA
notes: codon-optimised; microsomes of baculovirus-infected High Five insect cells, coexpressed with A. mellifera NADPH-cytochrome P450 reductase
On to B1, for which the Km (usually the concentration of substrate that gives half-maximal velocity) in data set [1] stood at 12.77 µM.

Source of the values: PMC10096648, “A conserved hymenopteran-specific family of cytochrome P450s protects bee pollinators from toxic nectar alkaloids” (Science Advances, 2023).
